# From the supplement of paper PMC12076712
# ± gives the standard deviation of the averaged measurements.
# Tests used:
# Test in all cases: pIC50, kinobeads binding competition
# Conditions in all cases: cell material: Jurkat lysate
# [1] = target: T1, BRSK1 (UniProt Q8TDC3)
# T1 sequence (whole entry): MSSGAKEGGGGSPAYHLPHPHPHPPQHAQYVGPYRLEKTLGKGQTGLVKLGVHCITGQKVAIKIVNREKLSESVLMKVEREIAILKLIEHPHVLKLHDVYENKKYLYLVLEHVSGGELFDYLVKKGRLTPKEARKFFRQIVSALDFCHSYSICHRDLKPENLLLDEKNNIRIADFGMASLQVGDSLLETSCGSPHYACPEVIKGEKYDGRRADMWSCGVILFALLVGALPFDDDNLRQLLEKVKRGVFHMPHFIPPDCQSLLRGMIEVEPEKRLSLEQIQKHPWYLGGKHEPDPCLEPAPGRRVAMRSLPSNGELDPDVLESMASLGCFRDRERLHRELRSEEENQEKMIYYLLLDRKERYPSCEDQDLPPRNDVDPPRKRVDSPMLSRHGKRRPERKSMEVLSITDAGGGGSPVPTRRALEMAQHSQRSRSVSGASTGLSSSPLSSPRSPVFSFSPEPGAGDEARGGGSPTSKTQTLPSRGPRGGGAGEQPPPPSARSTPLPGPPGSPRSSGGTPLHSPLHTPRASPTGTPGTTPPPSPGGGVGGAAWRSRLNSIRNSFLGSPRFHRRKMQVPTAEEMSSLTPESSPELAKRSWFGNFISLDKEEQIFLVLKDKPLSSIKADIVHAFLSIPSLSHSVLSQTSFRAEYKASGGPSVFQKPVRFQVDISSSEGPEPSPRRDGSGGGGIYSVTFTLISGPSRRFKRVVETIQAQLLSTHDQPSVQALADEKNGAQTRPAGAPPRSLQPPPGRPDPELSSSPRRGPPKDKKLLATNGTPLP
# [2] = target: T2, CDKL5 (UniProt O76039)
# T2 sequence (whole entry): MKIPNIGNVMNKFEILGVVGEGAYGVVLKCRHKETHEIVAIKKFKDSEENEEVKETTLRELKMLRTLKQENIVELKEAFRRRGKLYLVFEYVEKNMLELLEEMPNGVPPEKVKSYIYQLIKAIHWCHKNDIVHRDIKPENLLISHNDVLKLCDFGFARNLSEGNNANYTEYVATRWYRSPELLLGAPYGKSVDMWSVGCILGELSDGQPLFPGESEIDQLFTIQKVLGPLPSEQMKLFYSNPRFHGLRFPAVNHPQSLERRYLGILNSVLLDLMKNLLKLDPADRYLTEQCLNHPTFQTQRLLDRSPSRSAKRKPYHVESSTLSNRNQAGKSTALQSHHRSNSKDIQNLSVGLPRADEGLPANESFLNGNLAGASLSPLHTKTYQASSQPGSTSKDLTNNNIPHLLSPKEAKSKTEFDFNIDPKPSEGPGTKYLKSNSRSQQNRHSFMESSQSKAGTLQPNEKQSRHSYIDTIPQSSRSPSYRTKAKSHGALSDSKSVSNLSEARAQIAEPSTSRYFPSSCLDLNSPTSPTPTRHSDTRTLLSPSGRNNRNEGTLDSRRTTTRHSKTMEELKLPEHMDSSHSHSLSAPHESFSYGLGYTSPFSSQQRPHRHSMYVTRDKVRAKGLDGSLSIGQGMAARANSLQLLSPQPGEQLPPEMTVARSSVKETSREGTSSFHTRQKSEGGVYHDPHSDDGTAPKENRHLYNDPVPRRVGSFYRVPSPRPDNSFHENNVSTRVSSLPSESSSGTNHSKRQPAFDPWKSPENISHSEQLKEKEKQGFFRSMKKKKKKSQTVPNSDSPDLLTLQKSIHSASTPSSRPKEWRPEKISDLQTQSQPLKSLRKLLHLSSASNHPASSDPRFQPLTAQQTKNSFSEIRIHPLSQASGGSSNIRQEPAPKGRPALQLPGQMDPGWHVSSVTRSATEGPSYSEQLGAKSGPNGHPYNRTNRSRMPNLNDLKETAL
# [3] = target: MARK2 (UniProt Q7KZI7)
# [4] = target: T3, TGFBR1 (UniProt P36897)
# T3 sequence (whole entry): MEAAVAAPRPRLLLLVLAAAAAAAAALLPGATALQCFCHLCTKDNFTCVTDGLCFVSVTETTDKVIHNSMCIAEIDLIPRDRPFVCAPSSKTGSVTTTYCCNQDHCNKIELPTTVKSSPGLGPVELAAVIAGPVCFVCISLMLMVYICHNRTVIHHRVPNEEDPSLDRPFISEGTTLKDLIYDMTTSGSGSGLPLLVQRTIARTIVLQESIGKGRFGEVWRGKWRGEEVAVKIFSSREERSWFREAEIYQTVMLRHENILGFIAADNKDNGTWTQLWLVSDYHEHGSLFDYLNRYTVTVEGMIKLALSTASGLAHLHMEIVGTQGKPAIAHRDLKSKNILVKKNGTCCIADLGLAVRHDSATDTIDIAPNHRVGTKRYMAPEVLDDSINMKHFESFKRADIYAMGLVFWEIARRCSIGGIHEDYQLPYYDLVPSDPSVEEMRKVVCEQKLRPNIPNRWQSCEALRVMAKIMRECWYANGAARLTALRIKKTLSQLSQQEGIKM
# [5] = target: T4, TXK (UniProt P42681)
# T4 sequence (whole entry): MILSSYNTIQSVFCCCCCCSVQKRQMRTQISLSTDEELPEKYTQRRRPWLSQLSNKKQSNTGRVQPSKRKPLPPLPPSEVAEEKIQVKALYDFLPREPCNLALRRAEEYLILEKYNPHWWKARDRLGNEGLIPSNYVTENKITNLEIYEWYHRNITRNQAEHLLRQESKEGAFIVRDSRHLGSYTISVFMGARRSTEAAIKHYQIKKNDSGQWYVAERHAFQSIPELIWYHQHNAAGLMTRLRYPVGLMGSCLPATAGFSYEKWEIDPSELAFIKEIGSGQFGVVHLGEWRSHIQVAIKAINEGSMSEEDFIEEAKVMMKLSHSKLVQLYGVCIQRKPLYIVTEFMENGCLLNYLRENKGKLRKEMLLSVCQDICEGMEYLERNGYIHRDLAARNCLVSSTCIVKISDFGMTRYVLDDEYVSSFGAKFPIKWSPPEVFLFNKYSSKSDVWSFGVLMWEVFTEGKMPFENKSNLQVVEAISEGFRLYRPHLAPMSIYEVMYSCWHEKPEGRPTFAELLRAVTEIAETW
# [6] = target: UniProt Q9BVS4
# [7] = target: UniProt Q9P289
# [8] = target: UniProt Q9Y2K2
# UniProt Q9Y2K2, sequence (Q9Y2K2 whole entry, looked up): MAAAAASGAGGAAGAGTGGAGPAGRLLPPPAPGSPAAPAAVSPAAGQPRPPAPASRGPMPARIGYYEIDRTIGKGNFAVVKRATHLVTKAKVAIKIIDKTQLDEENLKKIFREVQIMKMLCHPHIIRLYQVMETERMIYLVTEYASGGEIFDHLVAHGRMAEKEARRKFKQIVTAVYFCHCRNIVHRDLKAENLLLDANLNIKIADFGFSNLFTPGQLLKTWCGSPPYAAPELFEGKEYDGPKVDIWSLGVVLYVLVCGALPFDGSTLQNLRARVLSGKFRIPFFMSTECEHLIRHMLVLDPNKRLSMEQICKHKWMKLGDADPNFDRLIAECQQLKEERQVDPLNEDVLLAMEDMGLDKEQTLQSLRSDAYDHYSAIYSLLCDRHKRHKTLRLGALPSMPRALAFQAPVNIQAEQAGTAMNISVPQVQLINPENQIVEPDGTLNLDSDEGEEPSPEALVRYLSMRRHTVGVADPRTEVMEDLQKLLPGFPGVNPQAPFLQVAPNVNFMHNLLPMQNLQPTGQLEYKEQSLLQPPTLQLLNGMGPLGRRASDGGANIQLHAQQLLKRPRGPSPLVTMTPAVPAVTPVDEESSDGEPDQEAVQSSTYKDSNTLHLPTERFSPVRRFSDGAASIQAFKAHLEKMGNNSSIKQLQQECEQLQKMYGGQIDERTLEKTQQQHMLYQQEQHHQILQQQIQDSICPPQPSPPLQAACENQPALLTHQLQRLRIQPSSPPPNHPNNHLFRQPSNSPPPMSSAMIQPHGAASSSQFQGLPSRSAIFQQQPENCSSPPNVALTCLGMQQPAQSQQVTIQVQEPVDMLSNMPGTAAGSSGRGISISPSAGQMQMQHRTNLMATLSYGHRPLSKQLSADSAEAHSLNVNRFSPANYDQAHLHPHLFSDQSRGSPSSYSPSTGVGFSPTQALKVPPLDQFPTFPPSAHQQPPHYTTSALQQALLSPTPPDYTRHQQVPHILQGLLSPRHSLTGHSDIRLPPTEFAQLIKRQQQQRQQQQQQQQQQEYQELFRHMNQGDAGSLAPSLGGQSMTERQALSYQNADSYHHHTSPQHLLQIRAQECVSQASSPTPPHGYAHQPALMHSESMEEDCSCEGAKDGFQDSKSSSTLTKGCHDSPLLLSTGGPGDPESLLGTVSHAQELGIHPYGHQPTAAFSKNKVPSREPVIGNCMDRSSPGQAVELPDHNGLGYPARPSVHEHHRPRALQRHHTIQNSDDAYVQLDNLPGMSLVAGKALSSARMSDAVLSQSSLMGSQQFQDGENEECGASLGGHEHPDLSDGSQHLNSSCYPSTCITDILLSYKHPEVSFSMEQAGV
# UniProt Q9BVS4, sequence (Q9BVS4 whole entry, looked up): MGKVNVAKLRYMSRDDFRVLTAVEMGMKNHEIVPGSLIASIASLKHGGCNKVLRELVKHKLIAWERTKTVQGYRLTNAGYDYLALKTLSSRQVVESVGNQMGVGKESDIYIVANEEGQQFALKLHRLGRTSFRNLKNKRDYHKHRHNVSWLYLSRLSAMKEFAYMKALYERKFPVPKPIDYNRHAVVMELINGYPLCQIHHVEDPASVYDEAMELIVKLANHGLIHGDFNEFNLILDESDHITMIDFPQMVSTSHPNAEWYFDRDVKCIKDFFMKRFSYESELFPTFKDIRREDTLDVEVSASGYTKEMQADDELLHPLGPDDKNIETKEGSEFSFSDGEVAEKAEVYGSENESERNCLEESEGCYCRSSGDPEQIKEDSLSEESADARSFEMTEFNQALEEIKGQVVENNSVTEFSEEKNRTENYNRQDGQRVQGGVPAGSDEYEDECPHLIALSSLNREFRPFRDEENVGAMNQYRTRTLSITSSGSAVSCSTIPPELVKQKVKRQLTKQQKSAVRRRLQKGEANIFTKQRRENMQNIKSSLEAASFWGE
# UniProt Q9P289, sequence (Q9P289 whole entry, looked up): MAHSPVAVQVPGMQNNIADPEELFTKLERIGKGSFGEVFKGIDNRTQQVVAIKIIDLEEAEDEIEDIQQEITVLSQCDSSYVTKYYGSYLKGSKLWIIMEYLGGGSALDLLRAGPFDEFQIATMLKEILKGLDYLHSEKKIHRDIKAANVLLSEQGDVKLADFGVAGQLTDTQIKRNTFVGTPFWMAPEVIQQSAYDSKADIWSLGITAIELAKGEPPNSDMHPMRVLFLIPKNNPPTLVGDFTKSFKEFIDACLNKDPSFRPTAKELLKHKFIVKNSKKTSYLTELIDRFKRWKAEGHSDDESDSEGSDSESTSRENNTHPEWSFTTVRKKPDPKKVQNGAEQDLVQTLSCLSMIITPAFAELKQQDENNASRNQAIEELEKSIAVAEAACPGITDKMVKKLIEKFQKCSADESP
# MARK2, sequence (Q7KZI7 whole entry): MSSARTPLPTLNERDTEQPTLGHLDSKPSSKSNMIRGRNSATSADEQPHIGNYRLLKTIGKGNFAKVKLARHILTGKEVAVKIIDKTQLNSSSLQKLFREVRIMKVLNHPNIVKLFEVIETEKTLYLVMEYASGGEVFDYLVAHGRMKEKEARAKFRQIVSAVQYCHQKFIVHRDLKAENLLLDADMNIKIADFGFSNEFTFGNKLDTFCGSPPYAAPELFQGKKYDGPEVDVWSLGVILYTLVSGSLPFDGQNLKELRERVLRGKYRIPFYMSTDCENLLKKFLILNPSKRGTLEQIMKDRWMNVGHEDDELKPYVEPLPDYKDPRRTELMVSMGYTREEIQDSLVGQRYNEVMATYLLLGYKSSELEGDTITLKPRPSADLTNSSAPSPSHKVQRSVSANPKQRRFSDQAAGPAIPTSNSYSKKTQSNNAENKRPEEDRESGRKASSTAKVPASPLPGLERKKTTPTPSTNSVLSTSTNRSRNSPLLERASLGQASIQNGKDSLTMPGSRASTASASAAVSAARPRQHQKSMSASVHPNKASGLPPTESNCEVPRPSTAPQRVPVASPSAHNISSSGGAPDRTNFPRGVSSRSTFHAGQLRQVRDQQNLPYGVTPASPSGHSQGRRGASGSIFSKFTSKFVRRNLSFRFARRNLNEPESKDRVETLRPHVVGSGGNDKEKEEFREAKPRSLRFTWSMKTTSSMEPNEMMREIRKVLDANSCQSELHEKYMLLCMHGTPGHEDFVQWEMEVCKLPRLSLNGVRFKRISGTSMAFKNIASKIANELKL
smiles,measurement,setting,value
CCc1cnn2c(NCc3ccc[n+]([O-])c3)cc(N3CCCC[C@H]3CCO)nc12 [dinaciclib],pIC50,[1],< 4.52
same,pIC50,[2],6.485 ± 0.035
same,pIC50,[3],< 4.52
same,pIC50,[4],< 4.52
same,pIC50,[5],< 4.52
same,pIC50,[6],< 4.52
same,pIC50,[7],< 4.52
same,pIC50,[8],< 4.52
